Structures can show the parent of a compound that is named as a salt. Where two headings read alike, the source gives them in different places.
Target: T1, human HSD-1 (recombinant HSD-1) (Homo sapiens, UniProt P28845)
T1 construct: made in house
Assay: HSD-1 activity inhibitory action in vitro (SPA, conversion of cortisone to cortisol)
Assay type: biochemical

[1] = recombinant human HSD-1 expressed using baculovirus system, 10 nM 3H cortisone, 500 μM NADPH, room temperature 90 to 120 min, read-out: hHSD1 (IC50 (nM))

T1 sequence (P28845 whole entry): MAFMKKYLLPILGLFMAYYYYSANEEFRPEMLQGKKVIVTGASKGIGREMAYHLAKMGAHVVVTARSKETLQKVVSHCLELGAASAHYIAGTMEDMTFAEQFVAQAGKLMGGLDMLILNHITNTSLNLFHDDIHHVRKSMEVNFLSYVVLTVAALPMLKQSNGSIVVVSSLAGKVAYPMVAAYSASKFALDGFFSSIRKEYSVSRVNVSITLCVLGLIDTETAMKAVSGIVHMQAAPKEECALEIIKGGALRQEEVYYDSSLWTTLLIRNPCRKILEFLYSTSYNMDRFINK

| SMILES | IC50 [1] [nM] | IC50 [nM] |
| --- | --- | --- |
| O=C(c1cnn(C2CCN(C(=O)N3CC(CO)C3)CC2)c1C1CC1)N1CC[C@@H](c2ccccc2C(F)(F)F)C1 [Example 28, 1-{5-cyclopropyl-1-[1-(3-hydroxymethylazetidine-1-carbonyl)piperidin-4-yl]-1H-pyrazole-4-carbonyl}-[(S)-3-(2-trifluoromethylphenyl)]pyrrolidine] | < 30 |  |
| CN1CCN(C(=O)N2CCC(n3ncc(C(=O)N4CC[C@@H](c5ccccc5C(F)(F)F)C4)c3C3CC3)CC2)CC1 [Example 29, 1-{5-cyclopropyl-1-[1-(4-methylpiperazine-1-carbonyl)piperidin-4-yl]-1H-pyrazole-4-carbonyl}-[(S)-3-(2-trifluoromethylphenyl)]pyrrolidine hydrochloride] | < 30 |  |
| CC(C)N1CCN(C(=O)N2CCC(n3ncc(C(=O)N4CC[C@@H](c5ccccc5C(F)(F)F)C4)c3C3CC3)CC2)CC1 [Example 30, 1-{5-cyclopropyl-1-[1-(4-isopropylpiperazine-1-carbonyl)piperidin-4-yl]-1H-pyrazole-4-carbonyl}-[(S)-3-(2-trifluoromethylphenyl)]pyrrolidine hydrochloride] | < 30 |  |
| CC(=O)N1CCN(C(=O)N2CCC(n3ncc(C(=O)N4CC[C@@H](c5ccccc5C(F)(F)F)C4)c3C3CC3)CC2)CC1 [Example 31, 1-{1-[1-(4-acetylpiperazine-1-carbonyl)piperidin-4-yl]-5-cyclopropyl-1H-pyrazole-4-carbonyl}-[(S)-3-(2-trifluoromethylphenyl)]pyrrolidine] | < 30 |  |
| O=C(c1cnn(C2CCN(C(=O)N3CCC[C@@H](O)C3)CC2)c1C1CC1)N1CC[C@@H](c2ccccc2C(F)(F)F)C1 [Example 32, 1-(5-cyclopropyl-1-{1-[(R)-3-hydroxypiperidine-1-carbonyl]piperidin-4-yl}-1H-pyrazole-4-carbonyl)-[(S)-3-(2-trifluoromethylphenyl)]pyrrolidine] | < 30 |  |
| NC(=O)C1CCN(C(=O)N2CCC(n3ncc(C(=O)N4CC[C@@H](c5ccccc5C(F)(F)F)C4)c3C3CC3)CC2)CC1 [Example 33, 1-{1-[1-(4-carbamoylpiperidine-1-carbonyl)piperidin-4-yl]-5-cyclopropyl-1H-pyrazole-4-carbonyl}-[(S)-3-(2-trifluoromethylphenyl)]pyrrolidine] | < 30 |  |
| NC(=O)C1CN(C(=O)N2CCC(n3ncc(C(=O)N4CC[C@@H](c5ccccc5C(F)(F)F)C4)c3C3CC3)CC2)C1 [Example 34, 1-{1-[1-(3-carbamoylazetidine-1-carbonyl)piperidin-4-yl]-5-cyclopropyl-1H-pyrazole-4-carbonyl}-[(S)-3-(2-trifluoromethylphenyl)]pyrrolidine] | < 30 |  |
| NC1CCN(C(=O)N2CCC(n3ncc(C(=O)N4CC[C@@H](c5ccccc5C(F)(F)F)C4)c3C3CC3)CC2)CC1 [Example 35, 1-{1-[1-(4-aminopiperidine-1-carbonyl)piperidin-4-yl]-5-cyclopropyl-1H-pyrazole-4-carbonyl}-[(S)-3-(2-trifluoromethylphenyl)]pyrrolidine hydrochloride] | < 30 |  |
| NC1CCN(C(=O)N2CCC(n3ncc(C(=O)N4CC[C@@H](c5ccccc5C(F)(F)F)C4)c3C3CC3)CC2)C1 (stereo partly drawn) [Example 36, 1-{1-[1-(3-aminopyrrolidine-1-carbonyl)piperidin-4-yl]-5-cyclopropyl-1H-pyrazole-4-carbonyl}-[(S)-3-(2-trifluoromethylphenyl)]pyrrolidine hydrochloride] | < 30 |  |
| O=C(NC1CCNCC1)N1CCC(n2ncc(C(=O)N3CC[C@@H](c4ccccc4C(F)(F)F)C3)c2C2CC2)CC1 [Example 37, 1-{5-cyclopropyl-1-[1-(piperidin-4-yl-carbamoyl)piperidin-4-yl]-1H-pyrazole-4-carbonyl}-[(S)-3-(2-trifluoromethylphenyl)]pyrrolidine hydrochloride] | < 30 |  |
| CC(=O)NC1CCN(C(=O)N2CCC(n3ncc(C(=O)N4CC[C@@H](c5ccccc5C(F)(F)F)C4)c3C3CC3)CC2)CC1 [Example 39, 1-{1-[1-(4-acetylaminopiperidine-1-carbonyl)piperidin-4-yl]-5-cyclopropyl-1H-pyrazole-4-carbonyl}-[(S)-3-(2-trifluoromethylphenyl)]pyrrolidine] | < 30 |  |
| CC(=O)NC1CCN(C(=O)N2CCC(n3ncc(C(=O)N4CC[C@@H](c5ccccc5C(F)(F)F)C4)c3C3CC3)CC2)C1 (stereo partly drawn) [Example 40, 1-{1-[1-(3-acetylaminopyrrolidine-1-carbonyl)piperidin-4-yl]-5-cyclopropyl-1H-pyrazole-4-carbonyl}-[(S)-3-(2-trifluoromethylphenyl)]pyrrolidine] | < 30 |  |
| CN(C)C1CCN(C(=O)N2CCC(n3ncc(C(=O)N4CC[C@@H](c5ccccc5C(F)(F)F)C4)c3C3CC3)CC2)C1 (stereo partly drawn) [Example 41, 1-{5-cyclopropyl-1-[1-(3-dimethylaminopyrrolidine-1-carbonyl)piperidin-4-yl]-1H-pyrazole-4-carbonyl}-[(S)-3-(2-trifluoromethylphenyl)]pyrrolidine hydrochloride] | < 30 |  |
| CN1CCC(NC(=O)N2CCC(n3ncc(C(=O)N4CC[C@@H](c5ccccc5C(F)(F)F)C4)c3C3CC3)CC2)CC1 [Example 42, 1-{5-cyclopropyl-1-[1-(1-methylpiperidin-4-yl-carbamoyl)piperidin-4-yl]-1H-pyrazole-4-carbonyl}-[(S)-3-(2-trifluoromethylphenyl)]pyrrolidine hydrochloride] | < 30 |  |
| CC(=O)N1CCC(NC(=O)N2CCC(n3ncc(C(=O)N4CC[C@@H](c5ccccc5C(F)(F)F)C4)c3C3CC3)CC2)CC1 [Example 43, 1-{1-[1-(1-acetylpiperidin-4-yl-carbamoyl)piperidin-4-yl]-5-cyclopropyl-1H-pyrazole-4-carbonyl}-[(S)-3-(2-trifluoromethylphenyl)]pyrrolidine] | < 30 |  |
| O=C1CCN(C(=O)N2CCC(n3ncc(C(=O)N4CC[C@@H](c5ccccc5C(F)(F)F)C4)c3C3CC3)CC2)CC1 [Example 44, 1-{5-cyclopropyl-1-[1-(4-oxopiperidine-1-carbonyl)piperidin-4-yl]-1H-pyrazole-4-carbonyl}-[(S)-3-(2-trifluoromethylphenyl)]pyrrolidine] |  | < 30 |
| CC(=O)NC1CN(C(=O)N2CCC(n3ncc(C(=O)N4CC[C@@H](c5ccccc5C(F)(F)F)C4)c3C3CC3)CC2)C1 [Example 45, 1-{1-[1-(3-acetylaminoazetidine-1-carbonyl)piperidin-4-yl]-5-cyclopropyl-1H-pyrazole-4-carbonyl}-[(S)-3-(2-trifluoromethylphenyl)]pyrrolidine] | < 30 |  |
| O=C(NCC(F)(F)F)N1CCC(n2ncc(C(=O)N3CC[C@@H](c4ccccc4C(F)(F)F)C3)c2C2CC2)CC1 [Example 47, 1-{5-cyclopropyl-1-[1-(2,2,2-trifluoroethylcarbamoyl)piperidin-4-yl]-1H-pyrazole-4-carbonyl}-[(S)-3-(2-trifluoromethylphenyl)]pyrrolidine] | < 30 |  |
| O=C(c1cnn(C2CCN(C(=O)N3CC(F)(F)C(F)(F)C3)CC2)c1C1CC1)N1CC[C@@H](c2ccccc2C(F)(F)F)C1 [Example 48, 1-{5-cyclopropyl-1-[1-(3,3,4,4-tetrafluoropyrrolidine-1-carbonyl)piperidin-4-yl]-1H-pyrazole-4-carbonyl}-[(S)-3-(2-trifluoromethylphenyl)]pyrrolidine] | < 30 |  |
| CC(C)[C@@H](CO)NC(=O)N1CCC(n2ncc(C(=O)N3CC[C@@H](c4ccccc4C(F)(F)F)C3)c2C2CC2)CC1 [Example 49, 1-(5-cyclopropyl-1-{1-[(S)-1-hydroxymethyl-2-methylpropylcarbamoyl]piperidin-4-yl}-1H-pyrazole-4-carbonyl)-[(S)-3-(2-trifluoromethylphenyl)]pyrrolidine] | < 30 |  |
| O=C(N[C@H](CO)Cc1ccccc1)N1CCC(n2ncc(C(=O)N3CC[C@@H](c4ccccc4C(F)(F)F)C3)c2C2CC2)CC1 [Example 50, 1-(1-{1-[(S)-1-benzyl-2-hydroxyethylcarbamoyl]piperidin-4-yl}-5-cyclopropyl-1H-pyrazole-4-carbonyl)-[(S)-3-(2-trifluoromethylphenyl)]pyrrolidine] | < 30 |  |
| O=C(N[C@H](CO)c1ccccc1)N1CCC(n2ncc(C(=O)N3CC[C@@H](c4ccccc4C(F)(F)F)C3)c2C2CC2)CC1 [Example 51, 1-(5-cyclopropyl-1-{1-[(S)-2-hydroxy-1-phenylethylcarbamoyl]piperidin-4-yl}-1H-pyrazole-4-carbonyl)-[(S)-3-(2-trifluoromethylphenyl)]pyrrolidine] | < 30 |  |
| CC(C)C[C@@H](CO)NC(=O)N1CCC(n2ncc(C(=O)N3CC[C@@H](c4ccccc4C(F)(F)F)C3)c2C2CC2)CC1 [Example 52, 1-(5-cyclopropyl-1-{1-[(S)-1-hydroxymethyl-3-methylbutylcarbamoyl]piperidin-4-yl}-1H-pyrazole-4-carbonyl)-[(S)-3-(2-trifluoromethylphenyl)]pyrrolidine] | < 30 |  |
| O=C(Nc1ccccc1O)N1CCC(n2ncc(C(=O)N3CC[C@@H](c4ccccc4C(F)(F)F)C3)c2C2CC2)CC1 [Example 53, 1-{5-cyclopropyl-1-[1-(2-hydroxyphenylcarbamoyl)piperidin-4-yl]-1H-pyrazole-4-carbonyl}-[(S)-3-(2-trifluoromethylphenyl)]pyrrolidine] | < 30 |  |
| O=C(NC1(CO)CCCC1)N1CCC(n2ncc(C(=O)N3CC[C@@H](c4ccccc4C(F)(F)F)C3)c2C2CC2)CC1 [Example 54, 1-{5-cyclopropyl-1-[1-(1-hydroxymethylcyclopentylcarbamoyl)piperidin-4-yl]-1H-pyrazole-4-carbonyl}-[(S)-3-(2-trifluoromethylphenyl)]pyrrolidine] | < 30 |  |
| O=C(NS(=O)(=O)c1ccccc1)N1CCC(n2ncc(C(=O)N3CC[C@@H](c4ccccc4C(F)(F)F)C3)c2C2CC2)CC1 [Example 55, 1-[1-(1-benzenesulfonylaminocarbonylpiperidin-4-yl)-5-cyclopropyl-1H-pyrazole-4-carbonyl]-[(S)-3-(2-trifluoromethylphenyl)]pyrrolidine] | < 30 |  |

Reference: patent US20100010219A1, “METHOD FOR PRODUCING PYRROLIDINE COMPOUND” (JAPAN TOBACCO INC., priority 2006, published 2010)
